Source: patent US20120122148A1, “Media For The Specific Detection Of Gram-Negative Bacteria Resistant To Beta-Lactam Antibiotics” (bioMerieux, SA, priority 2009, published 2012)

How the values were obtained:
Type in all cases: cell-based
[1] = test system: ESBL-producing strains, strains producing an HL Case, wild-type taxon strains; assay: Overall conclusion on the selective media over the strain panel
From the text: (§1) Choice of strains: The inventors selected strains which make it possible to evaluate the activity of antibiotics with respect to Gram-negative species: enterobacteria and nonfermenting bacilli. In particular, ESBL-producing strains, high-level cephalosporinase-producing strains (HL Case) and strains without a particular resistance profile, termed wild-type strains, were used.
(§2) Preparation of media: The media tested were media composed of the peptone base of the ChromID CPS medium (bioMérieux ref 43541) to which were added, after autoclaving, in molten media, 300 mg/l cloxacillin and, for medium T: 4 mg/l cefpodoxime, for medium A: 0.25 mg/L of cefepime, for medium B: 3 mg/l of cefamandole and for medium C: 3 mg/l of cefuroxime.
(§3) Inoculation of media: The media are inoculated by carrying out a 3-quadrant streaking method using bacterial suspensions at 0.5 McF. The media are then incubated for 24 hours at 37° C.
(§4) Reading of media: The media are observed visually after 18 h and 24 hours of incubation, the growth density and also the colorations and coloration strengths are evaluated according to the scale below: • − or 0: absence of growth or of expression of enzymatic acitivity (i.e. no coloration) • +: weak growth, or enzymatic activity • ++: very strong growth density or strong enzymatic acitivity (very strong coloration)

[2] = test system: Escherichia coli 0505101 (ESBL); assay: Growth and enzymatic activity on ChromID CPS-based selective media; design: Enz act.: key to the marks not given beside the values; conditions: cefpodoxime 4 mg/l (T), cefepime 0.25 mg/l (A), cefamandole 3 mg/l (B), cefuroxime 3 mg/l (C), each with 300 mg/l cloxacillin
From the text: as §1, §2, §3, §4

[3] = test system: Klebsiella oxytoca 0502094 (ESBL); assay: as above; design: key to the marks not given beside the values; conditions: cefpodoxime 4 mg/l (T), cefepime 0.25 mg/l (A), cefamandole 3 mg/l (B), cefuroxime 3 mg/l (C), each with 300 mg/l cloxacillin
From the text: as §1, §2, §3, §4

[4] = test system: Enterobacter spp 9306069 (HL case); assay: as above; design: key to the marks not given beside the values; conditions: cefpodoxime 4 mg/l (T), cefepime 0.25 mg/l (A), cefamandole 3 mg/l (B), cefuroxime 3 mg/l (C), each with 300 mg/l cloxacillin
From the text: as §1, §2, §3, §4

[5] = test system: Escherichia coli 0411146 (ESBL); assay: as above; design: key to the marks not given beside the values; conditions: cefpodoxime 4 mg/l (T), cefepime 0.25 mg/l (A), cefamandole 3 mg/l (B), cefuroxime 3 mg/l (C), each with 300 mg/l cloxacillin
From the text: as §1, §2, §3, §4

[6] = test system: Enterobacter aerogenes 0502112 (ESBL); assay: as above; design: key to the marks not given beside the values; conditions: cefpodoxime 4 mg/l (T), cefepime 0.25 mg/l (A), cefamandole 3 mg/l (B), cefuroxime 3 mg/l (C), each with 300 mg/l cloxacillin
From the text: as §1, §2, §3, §4

[7] = test system: Klebsiella oxytoca 0105100 (HL case); assay: as above; conditions: cefpodoxime 4 mg/l (T), cefepime 0.25 mg/l (A), cefamandole 3 mg/l (B), cefuroxime 3 mg/l (C), each with 300 mg/l cloxacillin
From the text: as §1, §2, §3, §4

[8] = test system: Proteus mirabilis 9709068 (ESBL); assay: as above; conditions: cefpodoxime 4 mg/l (T), cefepime 0.25 mg/l (A), cefamandole 3 mg/l (B), cefuroxime 3 mg/l (C), each with 300 mg/l cloxacillin
From the text: as §1, §2, §3, §4

[9] = test system: Proteus mirabilis 0105109 (HL case); assay: as above; conditions: cefpodoxime 4 mg/l (T), cefepime 0.25 mg/l (A), cefamandole 3 mg/l (B), cefuroxime 3 mg/l (C), each with 300 mg/l cloxacillin
From the text: as §1, §2, §3, §4

[10] = test system: Enterobacter spp 0503037 (Wild-type); assay: as above; conditions: cefpodoxime 4 mg/l (T), cefepime 0.25 mg/l (A), cefamandole 3 mg/l (B), cefuroxime 3 mg/l (C), each with 300 mg/l cloxacillin
From the text: as §1, §2, §3, §4

[11] = test system: Serratia fonticola 8001047 (Wild-type); assay: as above; conditions: cefpodoxime 4 mg/l (T), cefepime 0.25 mg/l (A), cefamandole 3 mg/l (B), cefuroxime 3 mg/l (C), each with 300 mg/l cloxacillin
From the text: as §1, §2, §3, §4

[12] = test system: Proteus mirabilis 0105105 (HL case); assay: as above; conditions: cefpodoxime 4 mg/l (T), cefepime 0.25 mg/l (A), cefamandole 3 mg/l (B), cefuroxime 3 mg/l (C), each with 300 mg/l cloxacillin
From the text: as §1, §2, §3, §4

[13] = test system: Morganella morganii 9904104 (HL case); assay: as above; conditions: cefpodoxime 4 mg/l (T), cefepime 0.25 mg/l (A), cefamandole 3 mg/l (B), cefuroxime 3 mg/l (C), each with 300 mg/l cloxacillin
From the text: as §1, §2, §3, §4

In the case of CO/N=C(\C(=O)N[C@@H]1C(=O)N2C(C(=O)[O-])=C(C[N+]3(C)CCCC3)CS[C@H]12)c1csc(N)n1 [Cefepime, cefepime], the “sensitivity and specificity of detection of the ESBL strains” value ([1]; compared with cefpodoxime, cefamandole, cefuroxime media) is reported as “best sensitivity and specificity”, the “discrimination between the ESBL-producing strains, the strains producing an HL Case or the wild-type taxon strains” value ([1]; medium A: 0.25 mg/L cefepime with 300 mg/l cloxacillin) is reported as “good discrimination” and the Enz act. ([2]; 18 h at 37° C.) is reported as “++”. The Growth ([2]; 18 h at 37° C.) was “++”, the Enz act. ([2]; 24 h at 37° C.) was “++” and the Growth ([2]; 24 h at 37° C.) was “++”. For the same compound, the Enz act. ([3]; 18 h at 37° C.) was “++”, the Growth ([3]; 18 h at 37° C.) was “++” and the Enz act. ([3]; 24 h at 37° C.) was “++”. The Growth ([3]; 24 h at 37° C.) was “++”, the Enz act. ([4]; 18 h at 37° C.) was “++” and the Growth ([4]; 18 h at 37° C.) was “++”. For the same compound, the Enz act. ([4]; 24 h at 37° C.) was “++”, the Growth ([4]; 24 h at 37° C.) was “++” and the Enz act. ([5]; 18 h at 37° C.) was “++”. The Growth ([5]; 18 h at 37° C.) was “++”, the Enz act. ([5]; 24 h at 37° C.) was “++” and the Growth ([5]; 24 h at 37° C.) was “++”. The Enz act. ([6]; 18 h at 37° C.) was “++”, the Growth ([6]; 18 h at 37° C.) was “++” and the Enz act. ([6]; 24 h at 37° C.) was “++”. For the same compound, the Growth ([6]; 24 h at 37° C.) was “++”, the Enz act. ([7]; 18 h at 37° C.) was “−” and the Growth ([7]; 18 h at 37° C.) was “−”. The Enz act. ([7]; 24 h at 37° C.) was “−”, the Growth ([7]; 24 h at 37° C.) was “−” and the Enz act. ([8]; 18 h at 37° C.) was “+”. The Growth ([8]; 18 h at 37° C.) was “+”, the Enz act. ([8]; 24 h at 37° C.) was “+” and the Growth ([8]; 24 h at 37° C.) was “+”. For the same compound, the Enz act. ([9]; 18 h at 37° C.) was “−”, the Growth ([9]; 18 h at 37° C.) was “−” and the Enz act. ([9]; 24 h at 37° C.) was “−”. For the same compound, the Growth ([9]; 24 h at 37° C.) was “−”, the Enz act. ([10]; 18 h at 37° C.) was “−” and the Growth ([10]; 18 h at 37° C.) was “−”. The Enz act. ([10]; 24 h at 37° C.) was “−”, the Growth ([10]; 24 h at 37° C.) was “−” and the Enz act. ([11]; 18 h at 37° C.) was “−”. The Growth ([11]; 18 h at 37° C.) was “−”, the Enz act. ([11]; 24 h at 37° C.) was “−” and the Growth ([11]; 24 h at 37° C.) was “−”. The Enz act. ([12]; 18 h at 37° C.) was “−”, the Growth ([12]; 18 h at 37° C.) was “−” and the Enz act. ([12]; 24 h at 37° C.) was “−”. The Growth ([12]; 24 h at 37° C.) was “−”, the Enz act. ([13]; 18 h at 37° C.) was “−” and the Growth ([13]; 18 h at 37° C.) was “−”. For the same compound, the Enz act. ([13]; 24 h at 37° C.) was “−” and the Growth ([13]; 24 h at 37° C.) was “−”.
